Measured values taken from ChEMBL document CHEMBL1133053, “(S)-Thiirancarboxylic acid as a reactive building block for a new class of cysteine protease inhibitors” (Bioorg Med Chem Lett, 2000).

Key:
Papain (Carica papaya) [1] = target: T1, Papain (Carica papaya) (UniProt P00784); test: The second order rate constant of inactivation was reported
T1 sequence (whole entry): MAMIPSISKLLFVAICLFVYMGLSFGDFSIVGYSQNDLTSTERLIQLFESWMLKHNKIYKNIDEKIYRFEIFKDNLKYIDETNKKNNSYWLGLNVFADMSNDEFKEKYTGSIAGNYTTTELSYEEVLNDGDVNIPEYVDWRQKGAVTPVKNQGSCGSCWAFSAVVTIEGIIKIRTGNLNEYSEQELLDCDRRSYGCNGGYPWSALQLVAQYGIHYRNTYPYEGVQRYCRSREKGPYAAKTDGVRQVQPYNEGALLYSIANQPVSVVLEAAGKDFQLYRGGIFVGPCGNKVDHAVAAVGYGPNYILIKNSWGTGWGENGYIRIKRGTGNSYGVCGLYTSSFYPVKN

Papain = target: T2, Papain (Carica papaya, UniProt P00784); test: The compound was evaluated for inhibition of papain.
T2 sequence (P00784 whole entry): T1 sequence (whole entry)

Papain (Carica papaya) [2] = target: T1, Papain (Carica papaya); test: The first order rate constant of inactivation was reported
Papain (Carica papaya) [3] = target: T1, Papain (Carica papaya); test: The second order rate constant of inactivation was reported at pH 4

Structure (SMILES)	K2 (Papain (Carica papaya) [1]) [M⁻¹ s⁻¹]	IC50 (Papain) [µM]	further results
CCOC(=O)[C@H]1O[C@@H]1C(=O)OCC	1.73		
COC(=O)[C@H]1CS1		0.2	K1 (Papain (Carica papaya) [2]): 0.2 µM
CCOC(=O)[C@@H]1N[C@H]1C(=O)O	58.8		
O=C(O)[C@H]1CS1	3.7		
CCOC(=O)[C@H]1N[C@@H]1C(=O)OCC	0.183		K2 (Papain (Carica papaya) [3]): 1.02 M⁻¹ s⁻¹
CCOC(=O)[C@@H]1N[C@H]1C(=O)OCC	0.2		
CCOC(=O)[C@H]1CS1		0.57	K1 (Papain (Carica papaya) [2]): 0.57 µM
CCOC(=O)C1OC1C(=O)O (stereo unspecified)		0.0105	
CCOC(=O)C1OC1C(=O)OCC (stereo unspecified)		0.207	
CCOC(=O)[C@@H]1O[C@H]1C(=O)OCC	1.68		
CCOC(=O)[C@H]1N[C@@H]1C(=O)O	78.2		K2 (Papain (Carica papaya) [3]): 413 M⁻¹ s⁻¹
O=C(O)[C@@H]1CN1	17		
